Tested on: TDP2
Experiment: not given
Conditions: read-out: previously reported IC50; previously reported value; cited from earlier work

SMILES	IC50 [µM]
O=C1Cc2ccccc2C(=O)N1 [compound 8, isoquinoline-1,3-dione, reference compound]	25

Target: T1, TDP2 (14M_zTDP2) (Danio rerio, UniProt Q5XJA0)
T1 sequence (Q5XJA0 121-369): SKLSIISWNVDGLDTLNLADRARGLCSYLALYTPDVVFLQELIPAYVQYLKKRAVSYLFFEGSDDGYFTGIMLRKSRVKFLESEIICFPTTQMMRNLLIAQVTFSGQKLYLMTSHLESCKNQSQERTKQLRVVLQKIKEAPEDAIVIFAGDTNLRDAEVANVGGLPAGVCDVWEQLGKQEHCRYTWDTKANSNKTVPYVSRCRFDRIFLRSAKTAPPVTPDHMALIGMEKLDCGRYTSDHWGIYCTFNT
Experiment: 14M_zTDP2 fluorescence-based biochemical assay
Conditions: at concentrations up to 50 μM

SMILES	TDP2 inhibition at 50 μM
O=C1NC(=O)c2ccccc2C1=Cc1cccs1 [12f, 4-(thiophen-2-ylmethylene)isoquinoline-1,3(2H,4H)-dione]	no activity
O=C1NC(=O)c2ccccc2C1=Cc1ccsc1 [12g, 4-(thiophen-3-ylmethylene)isoquinoline-1,3(2H,4H)-dione]	no activity
O=C1NC(=O)c2ccccc2C1=Cc1ccc[nH]1 [12d, 4-((1H-pyrrol-2-yl)methylene)isoquinoline-1,3(2H,4H)-dione]	no activity

Results, then the compound that gave them:

TDP2 inhibition at 50 μM	SMILES
no activity	Cn1cccc1C=C1C(=O)NC(=O)c2ccccc21 [12e, 4-((1-methyl-1H-pyrrol-2-yl)methylene)isoquinoline-1,3(2H,4H)-dione]
no inhibition	O=C1NC(=O)c2ccccc2/C1=C/NCc1ccc(O)cc1 [11b, (Z)-4-(((4-hydroxybenzyl)amino)methylene)isoquinoline-1,3(2H,4H)-dione]

Same assay, conditions: no concentration stated at the place

TDP2 inhibition	SMILES
reasonable potency	O=C1NC(=O)c2ccccc2C1=Cc1ccncc1 [12c, 4-(pyridin-4-ylmethylene)isoquinoline-1,3(2H,4H)-dione]

Same assay, conditions: read-out: IC50 (TDP2 inhibition); in-house fluorescence-based biochemical assay; 25 °C, 60 min

SMILES	IC50 [µM]
O=C1NC(=O)c2ccccc2C1=Cc1ccc2[nH]ccc2c1 [12i, 4-((1H-indol-5-yl)methylene)isoquinoline-1,3(2H,4H)-dione]	13
O=C1Cc2ccccc2C(=O)N1 [compound 8, isoquinoline-1,3-dione, reference compound]	22
O=C1NC(=O)c2ccccc2C1=Cc1ccc2[nH]ncc2c1 [12h, 4-((1H-indazol-5-yl)methylene)isoquinoline-1,3(2H,4H)-dione]	19

Continued, values first:

IC50 [µM]	SMILES
10	O=C1NC(=O)c2ccccc2C1=Cc1ccc(O)cc1 [12k, 4-(4-hydroxybenzylidene)isoquinoline-1,3(2H,4H)-dione]
4.8	O=C1NC(=O)c2ccccc2C1=Cc1ccc(C(=O)O)cc1 [12q, 4-((1,3-dioxo-2,3-dihydroisoquinolin-4(1H)-ylidene)methyl)benzoic acid]

From publication PMC7993140 (Medicinal chemistry research : an international journal for …, 2020)
